Here are results for seven compounds from patent publication US6492393B1, “Compounds useful as anti-inflammatory agents” (Boehringer Ingelheim Pharmaceuticals, Inc., priority 1999, dated 2002).

The test system of this test is TNFα in lipopolysaccharide stimulated THP cells. Briefly: Inhibition of TNF Production in THP Cells. The format is cell-based. The note with it: LPS (1 μg/mL) stimulated THP.1 cells, 18-24 hr incubation, human TNFα by ELISA. Here is the method:
Inhibition of TNF Production in THP Cells
The inhibition of cytokine production can be observed by measuring inhibition of TNFα in lipopolysaccharide stimulated THP cells (for example, see W. Prichett et al., 1995, J. Inflammation, 45, 97). All cells and reagents were diluted in RPMI 1640 with phenol red and L-glutamine, supplemented with additional L-glutamine (total: 4 mM), penicillin and streptomycin (50 units/ml each) and fetal bovine serum (FBS, 3%) (GIBCO, all conc. final). Assay was performed under sterile conditions; only test compound preparation was nonsterile. Initial stock solutions were made in DMSO followed by dilution into RPMI 1640 2-fold higher than the desired final assay concentration. Confluent THP.1 cells (2×10^6 cells/mL, final conc.; […], Rockville, Md.) were added to 96 well polypropylene round bottomed culture plates (Costar 3790; sterile) containing 125 μL test compound (2 fold concentrated) or DMSO vehicle (controls, blanks). […] Cell mixture was allowed to preincubate for 30 min, 37° C., 5% CO2 prior to stimulation with lipopolysaccharide (LPS; 1 μg/mL final; Siga L-2630, from E. coli serotype 0111.B4; stored as 1 mg/mL stock in endotoxin screened distilled H2O at −80° C.). Blanks (unstimulated) received H2O vehicle; final incubation volume was 250 μl. Overnight incubation (18-24 hr) proceeded as described above. Assay was terminated by centrifuging plates 5 min, room temperature, 1600 rpm (400×g); supernatants were transferred to clean 96 well plates and stored −80° C. until analyzed for human TNFα by a commercially available ELISA kit (Biosource #KHC3015, Camarillo, Calif.). Data was analyzed by non-linear regression (Hill equation) to generate a dose response curve using SAS Software System (SAS institute, Inc., Cary, N.C.). The calculated IC50 value is the concentration of the test compound that caused a 50% decrease in the maximal TNFα production.

On to `COc1ccc(C(C)(C)C)cc1NC(=O)Nc1ccc(OCCN2CCOC(COc3ccccc3)C2)c2ccccc12` (stereo not shown) [1-[5-tert-butyl-2-methoxyphenyl]-3-[4-(2-(2-phenoxymethyl)morpholin-4-yl-ethoxy)-naphthalen-1-yl]-urea], for which the IC50 was less than 10 µM.

Compound `CC(C)(C)c1ccc(N2CCOCC2)c(NC(=O)Nc2ccc(OCCN3CCOCC3)c3ccccc23)c1` [1-(5-tert-Butyl-2-morpholin-4-yl-phenyl)-3-[4-(2-morpholin-4-yl-ethoxy)-naphthalen-1-yl]-urea] yielded an IC50 of less than 10 µM. Compound `CC(C)(C)c1cc(Br)c(NCCN2CCOCC2)c(NC(=O)Nc2ccc(OCCN3CCOCC3)c3ccccc23)c1` [1-[3-Bromo-5-tert-butyl-2-(2-morpholin-4-yl-ethylamino)-phenyl]-3-[4-(2-morpholin-4-yl-ethoxy)-naphthalen-1-yl]-urea] registered a half-maximal inhibitory concentration (IC50) of less than 10 µM. For `Cc1ccc(C(C)(C)C)cc1NC(=O)Nc1ccc(Oc2ccncc2)c2ccccc12` [1-[5-tert-butyl-2-methylphenyl]-3-[4-(4-pyridinyloxy)-naphthalen-1-yl]-urea] the value was less than 10 µM; for `Cc1ccc(C(C)(C)C)cc1NC(=O)Nc1ccc(OCCN2CCOCC2)c2ccccc12` [1-[5-tert-butyl-2-methylphenyl]-3-[4-(2-morpholin-4-yl-ethoxy)-naphthalen-1-yl]-urea], less than 10 µM. For `Cc1ccc(C(C)(C)C)cc1NC(=O)Nc1ccc(Oc2ccnc(N)c2)c2ccccc12` [1-(5-tert-Butyl-2-methylphenyl)-3-[4-(2-aminopyridin-4-yl-oxy)naphthalen-1-yl]urea] the value was less than 10 µM; for `Cc1ccc(C(C)(C)C)cc1NC(=O)Nc1ccc(Oc2cccnc2)c2ccccc12` [1-[5-tert-butyl-2-methylphenyl]-3-[4-(3-pyridinyloxy)-naphthalen-1-yl]-urea], less than 10 µM.
